What was measured:
[1] = HPLC stability of TY in cochleates versus free TY in solution; type: physicochemical
Text: HPLC was used to study the stability of the TY in the cochleates, by measuring the concentration of TY in TY-cochleates as compared to free, i.e., unencochleated TY in solution.

SKOV3 cells = assay: Interaction of ZnTPP-cochleates with SKOV3 cells, confocal fluorescence; type: cell-based
Text: Phase contrast light microscopy and confocal microscopy (Olympus) was used to image liposomal suspensions, cochleates and cells, with and without the aid of fluorescence, which can be used, e.g., to study cellular uptake and intracellular distribution of fluorescently labeled cochleates and cargo moieties. Confocal microscopy is particularly advantageous as it is a 3-dimensional digital imaging device that can be used to effectively view slices of cell culture. This allows verification of the presence of cochleate and other agents within a cell.
In order to study any interaction of the cochleates with cells, ZnTPP-cochleates and free ZnTPP (in solution with DMSO) were introduced to SKOV3 cell cultures, and imaged with fluorescence under a confocal microscope.
Cochleates were prepared with and without ZnTPP as described above, except that prior to introduction of the ZnTPP/solvent, liposomes were formed with 1% diolyl phosphatidylethanolamine (DOPE) liganded to pyrene (purchased Avanti). The DOPE was incorporated into the soy PS liposomes by dissolving both DOPE and lipid in solvent, drying the solvent to a film, and using an aqueous solution to form liposomes. Confocal images were taken at 1 and 24 hours after introduction to SKOV3 cells to study the uptake and any difference in the cellular distribution of cochleate/lipid and the ZnTPP. […]

stomachs of rats = assay: Gastric irritation (bleeding and ulcerations) in rats; type: in vivo, rat; details: stomachs examined 4 hours post carrageenan injection; samples 2, 3, 7 and 9
Procedure: A carrageenan model was employed to study the effect of anti-inflammatory cochleates on edema in rat paws. Various aspirin cochleates of the invention were used to treat carrageenan-induced rat paw edema. […] Additionally, rats in all groups were examined for gastric irritation.
Samples 6-10 were prepared in accordance with Example 16, except that the lipid:aspirin molar ratio was 5:1 and soy PS was used instead of DOPS. Samples 4, 5, and 11 were prepared in a similar manner in the absence of a cargo moiety. In all cases, water was used in lieu of TES buffer. All samples were given by oral gavage at 1 hour prior to injection of carrageenan on Day 0 in a volume of 3 mL of 0.5% methylcellulose. […] Volumes of rat paw (in ml) were measured prior to carrageenan injection using a semi-automated plethysmograph (Buxco). At 0 time, 0.1 ml of 1% carrageenan in 0.9% pyrogen free saline was injected into the right hind paw of the rat. The paw volumes (in ml) were measured again 3 hours post carrageenan injection to determine inhibition of paw edema. Four rats from each of groups 2, 3, 6, 7, 8, 9 and 10 and one rat from each of groups 1, 4, 5 and 11 were bled (intravenously, jugular vein, approximately 1 ml blood) at 30 minutes and 4 hours post drug administration. Blood was collected in heparinized vacutainers. […]

## COc1cc(/C=C(\C#N)C(N)=O)cc(CSc2nc3ccccc3s2)c1O [free TY, Tyrphostin AG-825]
[1]
  concentration of degradation products (impurity 1 and impurity 2) over time: degraded over time
[1]; cochleates versus free TY in solution
  TY concentration over time (stability): decreased to zero

## C1=Cc2nc1c(-c1ccccc1)c1ccc([n-]1)c(-c1ccccc1)c1nc(c(-c3ccccc3)c3ccc([n-]3)c2-c2ccccc2)C=C1.[Zn+2] [free ZnTPP, Zinc Tetra-Phenyl Porphyrin]
SKOV3 cells; at 24 hours
  degradation of ZnTPP in SKOV3 cell culture: significant degradation
SKOV3 cells; confocal fluorescence images at 1 hour and 24 hours
  uptake by SKOV3 cells: high uptake

## COc1ccc2c(c1)c(CC(=O)O)c(C)n2C(=O)c1ccc(Cl)cc1 [indomethacin]
Stomachs of rats
  incidence and level of severity of gastric irritation: greatest gastric irritation

## CC(=O)Oc1ccccc1C(=O)O [unencochleated aspirin, aspirin]
Stomachs of rats
  incidence and level of severity of gastric irritation: greatest gastric irritation, followed by unencochleated aspirin

From patent publication US9974745B2, “Encochleation methods, cochleates and methods of use” (RUTGERS, THE STATE UNIVERSITY OF NEW JERSEY, priority 2003, dated 2018)
